How the values were obtained:
[1] = tested on: adipose-derived mesenchymal stem cells (AdMSCs) treated with TGFβ1; experiment: Adipogenic and fibrogenic gene expression (RT-PCR) in AdMSCs treated with TGFβ1 with or without rosiglitazone; type: cell-based, mouse; conditions: TGFβ1 10 ng/ml + rosiglitazone 10 μM, 7 days, v. TGFβ1 without rosiglitazone
Description: Previous studies have established that PPARg agonists reverse the effects of pro-fibrotic transforming growth factor-beta (TGFβ) ligands.
Mice adipose-derived stem cells (ADSCs) were isolated from adult male C57BL/6J mice inguinal fat pad. ADSCs were cultured in DMEM/F12 (Sigma, Logan, UT) supplemented with 10% Fetal Bovine Serum (FBS) (Sigma) and antibiotics (penicillin and streptomycin, Hyclone). ADSCs were maintained at 37° C. under a 5% CO2 atmosphere. For rosiglitazone treatment experiment, ADSCs were treated with/without recombinant TGFβ1 (10 ng/ml) (Invitrogen, USA) and rosiglitazone (10 μM) for 7 days after seeded ([…]) in 6-well plates.
Total RNA was isolated from ADSCs using TRI reagent and RNA extraction kit (Zymo Research, Irvine, CA). First-strand cDNA was synthesized by using iScript RT-PCR mix (BioRad, Hercules, CA) according to user manual. SYBR green qPCR master Mix (BioRad, Hercules, CA), primers, and cDNA were mixed in a final reaction volume of 10 μl. Real time polymerase chain reaction (RT-PCR) were performed by using Applied Biosystems 7300 Fast Real-Time PCR System (AB) according to the manufacturer's instructions.

[2] = tested on: PDGFRα+ cells; experiment: Flow cytometry of hindlimb skin after lymphadenectomy; type: in vivo, mouse
Description: (§1) A total of 32 mice underwent lymphedema surgery were randomly assigned into two groups, lymphedema group and rosiglitazone group (n=16). Rosiglitazone (Combi-Blocks, San Diego, USA) was dissolved in DMSO at the concentration of 25 mg/ml, and was diluted in corn oil to the final concentration of 2.5 mg/ml before injection. Mice in rosiglitazone group were intraperitoneally injected with rosiglitazone (10 mg/kg) twice a week from the day of surgery (day 0, 3, 7, 10, 14, 17). Mice in lymphedema group were injected with corn oil only at same time point. 8 mice in lymphedema group and rosiglitazone group were sacrificed on day 7 (n=8 per group), the rest of them were sacrificed on day 21 (n=8 per group). Another 18 mice were randomly divided into three groups, normal control group, lymphedema group, and rosiglitazone group, skin cells from these mice were isolated and used for flow cytometry analysis at day 7 (n=3 per group per staining).
Flow cytometry was performed using single-cell suspensions obtained from skin and subcutaneous tissue. 1×1 cm tissue harvested from the mice hindlimb were minced with scissors and digested by using collagenase type I (1 mg/ml) and dispase (2 mg/ml) at 37° C. on a shaker. All suspensions were filtered through 100 μm filters.
Cells were then stained with following conjugated antibodies: APC-PDGFRα (1:100), APC-PDGFRβ (1:100), HCS LipidTOX red neutral lipid stains (1:200), APC-CD45 (1:150), PE-CD3 (1:150), PerCP-Cy5-CD4 (1:150). Flow cytometry was performed on the Beckman Cytoflex FCM using CytExpert software (Beckman Coulter, CA, USA) and data were analyzed with FlowJo software (Tree Star; Ashland, OR).

[3] = tested on: hindlimb secondary lymphedema after lymphadenectomy; experiment: Mouse hind limb lymphedema model (lymphadenectomy): limb measurements and histology; type: in vivo; conditions: rosiglitazone 10 mg/kg i.p. twice a week; for Dermal thickness / Overall skin thickness / Subdermal layer (fibroadipose tissue) thickness: H&E
Description: Evans blue (Sigma) (4% in PBS) was filtered and injected into mouse foot pad to stain lymph nodes in hind limb. Mouse hind limb secondary lymphedema was induced by surgical excision of the ipsilateral superficial inguinal, popliteal, deep inguinal lymph nodes, and the femoral lymphatic vessel. During surgical procedures, electrocauterization were used to prevent bleeding.
as §1
Sacrifice was performed via CO2 asphyxiation. Skin and muscle of hind limb were harvested, fixed in 10% formalin for 48 h followed by 70% ethanol for histological assessment. Formalin-fixed tissues were then dehydrated, embedded in paraffin, and sectioned with 5-micron-thickness.
Sections were stained either with Hematoxylin and Eosin (H&E) or Picrosirius Red according to standard protocol, and used to assess the overall skin thickness, dermal thickness, fibroadipose tissue thickness, and fibrosis, respectively. Quantitative histological analysis was performed using samples from day 7 and 21.
Images were captured by using Olympus BX53 (UCMAD3, T7, Japan) and all-in-one Keyence (Itasca, IL, USA) microscopes and assessed by ImageJ (version 1.52a; […]) by two independent researchers under blinded conditions. Fibrosis was assessed with the image thresholding plugin in ImageJ software, normalization is based on the length of the section (v1.52a; […]).

[4] = systemic rosiglitazone [Ref. 20,21]; cited from earlier work
[5] = 1 cm×1 cm area of skin, day 7 after lymphadenectomy
[6] = 1 week after lymphadenectomy, normalized to uninjured hindlimb

Compound: CN(CCOc1ccc(CC2SC(=O)NC2=O)cc1)c1ccccn1 (stereo not shown) [rosiglitazone]
- Adipoq expression level [1]: 2.40
- Col1a1 expression level [1]: 0.76
- Ctgf expression level [1]: 0.80
- Fn1 expression level [1]: 0.82
- Lpl expression level [1]: 2.53
- Pdgfra expression level [1]: 0.72
- Absolute number of PDGFRα+LipidTOX+ cells [2, 5]: 862
- FSC^high PDGFRα+LipidTOX+ cells (cell size) [2, 5]: 73
- PDGFRα+ cells, absolute count [2, 5]: 0.9×10^3
- PDGFRα+LipidTOX+ cells as a proportion of total PDGFRα cells ([2]; day 7 after lymphadenectomy, results section): 86%
- Share of PDGFRα+ cells that were LipidTOX+ ([2]; rosiglitazone-treated samples): over 90%
- Normalized edema size [3, 6]: 1.08
- Normalized hindlimb circumference [3, 6]: 1.31
- Dermal thickness ([3]; 1 week): 438.54
- Overall skin thickness ([3]; 1 week): 924.66 μm
- Subdermal layer (fibroadipose tissue) thickness ([3]; 1 week): 486.12 μm
- Normalized hindlimb fibrosis (picrosirius red) ([3]; 1 week): 0.130
- Dermal thickness ([3]; 3 week): 403.76
- Overall skin thickness ([3]; 3 week): 646.12 μm
- Subdermal layer (fibroadipose tissue) thickness ([3]; 3 week): 242.36 μm
- Normalized hindlimb fibrosis (picrosirius red) ([3]; 3 week): 0.128
- Adverse effects [4]: fluid retention, heart failure, and fractures
